Source: patent US20110076298A1, “Soluble stabilized trimeric hiv env proteins and uses thereof” (priority 2006, published 2011)

What was measured:
[1] = test system: 2G12, b6, b12, CD4-IgG2, HIVIg; assay: Lectin ELISA antigenicity, untreated vs Tween 20 treated; assay type: binding; details: 0.05% Tween 20, lectin ELISA
Source text: FIG. 8: Effect of Tween® 20 treatment on KNH1144 SOSIP R6 HMW aggregate antigenicity. Lectin ELISA of untreated and Tween® 20 treated KNH1144 SOSIP R6 HMW aggregate: Untreated or Tween® 20-treated HMW aggregate were bound to GNA lectin coated ELISA plates and probed with 2G12, b6, b12, CD4-IgG2, and HIVIg. The panels represent their respective binding curves. Antibody affinity to the untreated HMW aggregate is represented by the curve having diamond lines. Affinity to the Tween® 20 treated HMW aggregate is represented by curve having square lines. The Y-axis represents the colorimetric signal at OD492 and the X-axis represents antibody concentration in [ug/ml]. Lectin ELISA of untreated and Tween® 20-treated KNH1144 SOSIP R6 gp140 trimer: Untreated or Tween® 20 treated trimer (containing 10-15% HMW aggregate) were bound to GNA lectin coated ELISA plates and probed with 2G12, b6, b12, and CD4-IgG2. The panels represent their respective binding curves. Antibody affinity to the untreated trimer is represented by the curve having diamond lines. Affinity to the Tween® 20 treated trimer is represented by the curve having square lines. The Y-axis represents the colorimetric signal at OD492 and the X-axis represents antibody concentration in [ug/ml].
ELISA plates were coated overnight at 4° C. with lentil lectin powder from Lens culinaris (L9267, Sigma) at 10 ug/ml concentration. […]

[2] = Tween 20 aggregate conversion/collapse experiments, BN-PAGE; assay type: physicochemical; details: 0° C., room temperature, 37° C.
Protocol: FIGS. 6A-6D: Tween® 20 conversion experiments. (A) Dose response: Purified KNH1144 SOSIP R6 gp140 trimer was incubated with 0 (no detergent control), or 0.1, 0.05, 0.01, 0.001, or 0.0001% Tween® 20 and analyzed by BN-PAGE and Coomassie G-250 stain. Arrows point to HMW aggregate and trimer species. M stands for the 669 k thyroglobulin and 440 k ferritin molecular weight protein standards. (B) Time course: Purified KNH1144 SOSIP R6 gp140 trimer was incubated with Tween® 20 for 5 min (left panel) or 10 min (right panel). Trimer was either untreated (−lane) or Tween® 20 treated (+lane). Arrows indicate trimer and HMW aggregate bands. […]
Tween® 20 Dose effect: 1 ug of purified KNH1144 SOSIP R6 trimer was incubated with varying concentrations of Tween® 20 (polyoxyethylene sorbitan monolaurate) ranging from 0 to 0.0001% (v/v) and incubated for 1 hour at room temperature. Following incubation, samples were analyzed by BN-PAGE as described above. […]
Temperature dependance on Tween® 20 effect: To determine if temperature affected the ability of Tween® 20 to recover trimers from aggregates (i.e., collapse aggregate into trimer), 1 ug of purified KNH1144 SOSIP R6 trimer was incubated with Tween® 20 to a final concentration of 0.05% (v/v) at 0° C. […] Following the incubation, samples were analyzed by BN-PAGE and Coomassie staining. […]

## KNH1144 SOSIP R6 HMW aggregate: high molecular weight aggregate species of KNH1144 SOSIP R6 gp140, slower migrating on BN-PAGE
[1]
  antibody binding, Tween 20 treated vs untreated: increased binding
[2]
  temperature dependence of the Tween 20 effect: temperature independent
